Laboratory results taken from ChEMBL document CHEMBL1671743, “Affinity of ceftobiprole for penicillin-binding protein 2b in Streptococcus pneumoniae strains with various susceptibilities to penicillin” (Antimicrob Agents Chemother, 2010).
pIC50: −log10 of the molar value. ≈ marks a conversion by molar mass, not a printed value.

Columns and labels:
Streptococcus pneumoniae [1] = experiment: Antimicrobial activity against penicillin sensitive Streptococcus pneumoniae isolate 8865 by broth microdilution method; assay type: functional
Streptococcus pneumoniae [2] = experiment: Antimicrobial activity against penicillin intermediate resistant Streptococcus pneumoniae isolate 8882 harboring PBP2b 443SSNA mutant by broth microdilution method; assay type: functional
Streptococcus pneumoniae [3] = experiment: Antimicrobial activity against penicillin intermediate resistant Streptococcus pneumoniae isolate 8009 harboring PBP2b 443SSNA mutant by broth microdilution method; assay type: functional
Streptococcus pneumoniae [4] = experiment: Antimicrobial activity against penicillin resistant Streptococcus pneumoniae isolate 8819 harboring PBP2b 443SSNA mutant by broth microdilution method; assay type: functional
[5] = target: T1, Penicillin-binding protein 2B (Streptococcus pneumoniae serotype 4 (strain ATCC BAA-334 / TIGR4), UniProt P0A3M5); experiment: Inhibition of Bocillin FL binding to Streptococcus pneumoniae isolate 8865 PBP2b
T1 sequence (P0A3M5 whole entry): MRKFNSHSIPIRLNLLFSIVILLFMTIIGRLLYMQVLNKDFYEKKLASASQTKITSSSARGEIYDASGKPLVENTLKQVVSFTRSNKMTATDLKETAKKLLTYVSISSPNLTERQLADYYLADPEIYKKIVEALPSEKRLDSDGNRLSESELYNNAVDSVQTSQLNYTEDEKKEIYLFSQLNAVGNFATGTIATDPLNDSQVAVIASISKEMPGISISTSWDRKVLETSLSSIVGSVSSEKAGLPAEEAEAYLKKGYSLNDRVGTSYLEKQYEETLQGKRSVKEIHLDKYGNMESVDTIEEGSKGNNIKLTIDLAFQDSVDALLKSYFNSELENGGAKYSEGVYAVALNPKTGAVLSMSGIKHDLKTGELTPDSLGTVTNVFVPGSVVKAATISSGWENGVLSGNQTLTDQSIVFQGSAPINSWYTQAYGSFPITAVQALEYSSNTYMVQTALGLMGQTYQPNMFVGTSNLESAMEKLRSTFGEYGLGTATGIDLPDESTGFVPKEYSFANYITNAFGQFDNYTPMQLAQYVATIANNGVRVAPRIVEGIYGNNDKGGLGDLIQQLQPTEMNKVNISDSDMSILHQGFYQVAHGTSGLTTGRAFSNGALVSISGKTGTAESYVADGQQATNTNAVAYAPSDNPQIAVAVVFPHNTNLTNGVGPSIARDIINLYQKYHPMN

[6] = target: T2, Penicillin-binding protein 2B (Streptococcus pneumoniae (strain ATCC BAA-255 / R6), UniProt P0A3M6, T446A); experiment: Inhibition of Streptococcus pneumoniae isolate 8882 Bocillin FL binding to PBP2b 443SSNA mutant
[7] = target: T2, Penicillin-binding protein 2B; experiment: Inhibition of Bocillin FL binding to PBP2b PBP2b 443SSNA mutant in Streptococcus pneumoniae isolate 8009 harboring E333G, N470K, E476G, T489S, E506D, and N538D mutant genes
[8] = target: Penicillin-binding protein 2B (Streptococcus pneumoniae (strain ATCC BAA-255 / R6), UniProt P0A3M6, A619G); experiment: Inhibition of Bocillin FL binding to PBP2b in Streptococcus pneumoniae isolate 8819 harboring E333G, I361L, E369D, S412P, N422Y, T426K, Q427L, Q438E, L455I, S473T, E476G, S480A, T489A, N538D, D561E, Q564K, and D625G mutant genes
Streptococcus pneumoniae [9] = experiment: Antimicrobial activity against laboratory-derived Streptococcus pneumoniae isolate R6 by broth microdilution method; assay type: functional
Streptococcus pneumoniae [10] = experiment: Antimicrobial activity against laboratory-derived Streptococcus pneumoniae isolate R6 harboring Thr446Ala mutant gene by broth microdilution method; assay type: functional
Streptococcus pneumoniae [11] = experiment: Antimicrobial activity against laboratory-derived Streptococcus pneumoniae isolate R6 harboring Thr446Ala/Ala-619-Gly mutant gene by broth microdilution method; assay type: functional
[12] = target: T1, Penicillin-binding protein 2B; experiment: Inhibition of Bocillin FL binding to PBP2b in laboratory-derived Streptococcus pneumoniae isolate R6
[13] = target: T2, Penicillin-binding protein 2B; experiment: Inhibition of Bocillin FL binding to PBP2b Thr446Ala mutant in laboratory-derived Streptococcus pneumoniae isolate R6
[14] = target: Penicillin-binding protein 2B (Streptococcus pneumoniae (strain ATCC BAA-255 / R6), UniProt P0A3M6, A619G/T446A); experiment: Inhibition of Bocillin FL binding to PBP2b Thr446Ala/Ala-619-Gly mutant in laboratory-derived Streptococcus pneumoniae isolate R6
Penicillin-binding protein 2B (Streptococcus pneumoniae (strain ATCC BAA-255 / R6), UniProt P0A3M6, A619G/T446A), sequence (P0A3M6 whole entry T446A/A619G): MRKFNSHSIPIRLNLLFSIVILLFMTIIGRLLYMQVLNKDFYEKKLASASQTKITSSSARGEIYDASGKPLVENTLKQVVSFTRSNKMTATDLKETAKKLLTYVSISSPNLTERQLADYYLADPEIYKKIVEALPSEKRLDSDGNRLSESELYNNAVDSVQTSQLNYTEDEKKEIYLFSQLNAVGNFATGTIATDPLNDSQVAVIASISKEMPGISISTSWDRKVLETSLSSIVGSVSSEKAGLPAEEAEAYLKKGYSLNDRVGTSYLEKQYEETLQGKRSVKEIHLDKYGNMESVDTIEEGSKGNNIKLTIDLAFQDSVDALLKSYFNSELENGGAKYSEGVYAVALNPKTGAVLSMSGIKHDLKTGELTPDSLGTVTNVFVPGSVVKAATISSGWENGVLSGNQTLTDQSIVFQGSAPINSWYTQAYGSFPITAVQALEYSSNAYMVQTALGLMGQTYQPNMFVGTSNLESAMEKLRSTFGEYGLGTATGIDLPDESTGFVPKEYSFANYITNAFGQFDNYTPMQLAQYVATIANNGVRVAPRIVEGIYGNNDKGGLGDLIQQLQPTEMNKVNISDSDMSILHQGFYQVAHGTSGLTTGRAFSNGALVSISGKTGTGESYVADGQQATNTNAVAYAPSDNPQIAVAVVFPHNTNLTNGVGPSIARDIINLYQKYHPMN

T2 sequence (P0A3M6 whole entry T446A): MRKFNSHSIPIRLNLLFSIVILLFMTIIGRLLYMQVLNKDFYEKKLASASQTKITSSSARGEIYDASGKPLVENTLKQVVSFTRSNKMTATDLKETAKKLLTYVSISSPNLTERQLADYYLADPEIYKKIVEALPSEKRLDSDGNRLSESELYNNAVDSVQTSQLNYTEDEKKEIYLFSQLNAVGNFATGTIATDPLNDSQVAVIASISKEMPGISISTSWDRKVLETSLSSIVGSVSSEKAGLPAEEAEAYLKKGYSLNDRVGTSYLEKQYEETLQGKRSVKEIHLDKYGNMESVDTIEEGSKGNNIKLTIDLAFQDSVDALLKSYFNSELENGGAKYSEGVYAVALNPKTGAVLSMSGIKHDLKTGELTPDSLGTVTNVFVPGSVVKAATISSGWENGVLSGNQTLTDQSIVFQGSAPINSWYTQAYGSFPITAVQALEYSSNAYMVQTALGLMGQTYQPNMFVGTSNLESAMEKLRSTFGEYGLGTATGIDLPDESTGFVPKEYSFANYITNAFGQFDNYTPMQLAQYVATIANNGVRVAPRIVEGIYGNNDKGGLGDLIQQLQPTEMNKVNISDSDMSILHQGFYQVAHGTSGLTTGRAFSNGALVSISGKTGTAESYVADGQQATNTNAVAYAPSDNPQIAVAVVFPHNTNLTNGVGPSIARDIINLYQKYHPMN
Penicillin-binding protein 2B (Streptococcus pneumoniae (strain ATCC BAA-255 / R6), UniProt P0A3M6, A619G), sequence (P0A3M6 whole entry A619G): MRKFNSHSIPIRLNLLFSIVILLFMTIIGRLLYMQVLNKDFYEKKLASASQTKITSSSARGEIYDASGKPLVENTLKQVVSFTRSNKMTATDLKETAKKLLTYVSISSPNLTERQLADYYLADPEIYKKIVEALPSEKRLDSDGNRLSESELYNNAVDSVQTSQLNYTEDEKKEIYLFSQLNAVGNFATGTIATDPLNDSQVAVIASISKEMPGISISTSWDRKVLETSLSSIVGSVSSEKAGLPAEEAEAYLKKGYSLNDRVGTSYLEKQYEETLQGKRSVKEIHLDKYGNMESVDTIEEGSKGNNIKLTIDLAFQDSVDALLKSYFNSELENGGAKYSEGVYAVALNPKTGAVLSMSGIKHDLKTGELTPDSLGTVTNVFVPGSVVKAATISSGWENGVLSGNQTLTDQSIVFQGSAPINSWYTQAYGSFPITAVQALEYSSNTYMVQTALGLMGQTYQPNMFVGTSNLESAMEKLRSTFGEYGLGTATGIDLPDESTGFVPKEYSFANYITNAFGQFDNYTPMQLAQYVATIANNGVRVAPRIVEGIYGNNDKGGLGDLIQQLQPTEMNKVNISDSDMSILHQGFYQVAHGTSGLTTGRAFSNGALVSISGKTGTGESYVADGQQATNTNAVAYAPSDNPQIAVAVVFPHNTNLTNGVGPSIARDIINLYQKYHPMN

| Structure (SMILES) | MIC (Streptococcus pneumoniae [1]) | MIC (Streptococcus pneumoniae [2]) | MIC (Streptococcus pneumoniae [3]) | MIC (Streptococcus pneumoniae [4]) | pIC50 [5] | pIC50 [6] | pIC50 [7] | pIC50 [8] | MIC (Streptococcus pneumoniae [9]) | MIC (Streptococcus pneumoniae [10]) | MIC (Streptococcus pneumoniae [11]) | pIC50 [12] | pIC50 [13] | pIC50 [14] |
| --- | --- | --- | --- | --- | --- | --- | --- | --- | --- | --- | --- | --- | --- | --- |
| Nc1nc(/C(=N/O)C(=O)N[C@@H]2C(=O)N3C(C(=O)O)=C(/C=C4\CCN([C@@H]5CCNC5)C4=O)CS[C@H]23)ns1 [CEFTOBIPROLE] | 0.008 µg/mL (≈ 0.015 µM) | 0.008 µg/mL (≈ 0.015 µM) | 0.015 µg/mL (≈ 0.0281 µM) | 1 µg/mL (≈ 1.87 µM) | 6.95 | 5.65 | 5.77 | < 4.82 | 0.002 µg/mL (≈ 0.00374 µM) | 0.002 µg/mL (≈ 0.00374 µM) | 0.004 µg/mL (≈ 0.00748 µM) | 6.95 | 5.88 | 5.50 |
| CC1(C)S[C@@H]2[C@H](NC(=O)Cc3ccccc3)C(=O)N2[C@H]1C(=O)O [PENICILLIN G] | ≤ 0.015 µg/mL | 0.12 µg/mL (≈ 0.359 µM) | 0.12 µg/mL (≈ 0.359 µM) | 8 µg/mL (≈ 23.9 µM) | 7.62 | 5.13 | 5.13 | < 4.62 | 0.015 µg/mL (≈ 0.0449 µM) | 0.015 µg/mL (≈ 0.0449 µM) | 0.03 µg/mL (≈ 0.0897 µM) | 6.35 | 5.62 | 5.27 |
| CO/N=C(\C(=O)N[C@@H]1C(=O)N2C(C(=O)O)=C(CSc3nc(=O)c(O)nn3C)CS[C@H]12)c1csc(N)n1 [CEFTRIAXONE] | 0.03 µg/mL (≈ 0.0541 µM) | 0.06 µg/mL (≈ 0.108 µM) | 0.06 µg/mL (≈ 0.108 µM) | 8 µg/mL (≈ 14.4 µM) | < 4.84 | < 4.84 | < 4.84 | < 4.84 | 0.008 µg/mL (≈ 0.0144 µM) | 0.008 µg/mL (≈ 0.0144 µM) | 0.015 µg/mL (≈ 0.027 µM) | < 4.84 | – | – |
